# Source: patent US8466202B2, “Anthracenedione compounds” (Sunten Phytotech Co., Ltd., priority 2006, dated 2013)
# Values joined by “and” are separate entries in the source; they are usually repeats but may differ in a detail not shown here. Equal entries are not always repeated.
# Assays:
# [1] = Body weight of rats over the 10-day period (Example 3); type: in vivo, rat; design: Body weight Difference: unit not given here; settings: Group III, Physcion 4 mg/kg, CP 8 mg/kg
# Procedure: The aforementioned STD05 and compounds were studied for the laxative activity. Healthy male S.D. rats (BioLASCO Taiwan Co. Ltd.) were divided into three groups (i.e., Groups 1-3) in this study. In Group I, 6 rats, as negative control, were given no treatment; 6 rats, as positive control, were given 3.35 mg/kg/day Sennosides (Through®, Chung Mei Pharmaceutical Co., Ltd; Active ingredient: Sennosides 20 mg, as sennoside A+B 12 mg, Lot. 012F 006); 6 rats were treated STD05 (8 mg/kg/day); 6 rats were treated with an extract fraction containing aloe-emodin, rhein, and emodin (“ARE”, 8 mg/kg/day); 6 rats were treated with Aloe-emodin (4 mg/kg/day); and 6 rats were treated with Rhein (4 mg/kg/day). In Group II, 6 rats, as negative control, were given no treatment; 6 rats, as positive control, were given 3.35 mg/kg/day Sennosides; 6 rats were treated STD05 (24 mg/kg/day); 6 rats were treated with an extract fraction containing ARE (24 mg/kg/day); 6 rats were treated with Chrysophanol (4 mg/kg/day); and 6 rats were treated with Emodin (4 mg/kg/day). In Group III, 6 rats, as negative control, were given no treatment; 6 rats were treated with Physcoin (4 mg/kg/day); and 6 rats were treated with a mixture of chrysophanol and physcion (8 mg/kg/day, “CP”). The experiments were carried out under controlled temperature, humidity, and lighting. Each rat was fed standard rat food and water ad libitum in housing that provided a 12-hour light/dark cycle. For statistical comparison, all of the rats were divided into six sets according to the body weights. The first part of the experiment studied the effect of the test substances on feces production. During the 10-day period, the body weights of the rats were weighed each day and recorded. The rat's feces was also studied three times in the manner described above during the 10-day period for any unusual observations. During the 10-day period, any rat that appeared dying was euthanized, dissected, and examined for any illness or injury. Any complications or illness were analyzed by H&E stains to determine the cause of death and to allow for dosage reconsiderations for future experiments. Summarized in Table 4 below are the effects of the compounds, mixtures, or extracts on the rat body weights.
# healthy male S.D. rats = assay: Feces production in rats over the 10-day period (Example 3); type: in vivo, rat; settings: for increase of the feces amount (wet weight): vs control of the same group; for Pellet count / Water content / Wet Weight: Group III, Physcion 4 mg/kg, CP 8 mg/kg
# Procedure: During this period, the body weights of the rats were weighed each day and recorded. Feces of each rat were studied three times during the period for any unusual observations. Specifically, the amounts of feces were weighed on Days 11, 15, 18, and 21. During observation, each rat was placed in a metabolic cage. Feces were collected every twenty-four hours. The number of collected feces pellets was counted, and the pellets' shapes and colors were evaluated. After weighing the moist feces, they were dried in an oven at 100° C. for twenty-four hours. The water content from the feces was calculated according to the following formula: Water content percentage=[(wet weight−dry weight)/wet weight]×100%. (I) The results are summarized in Table 2 below: The aforementioned STD05 and compounds were studied for the laxative activity. Healthy male S.D. rats (BioLASCO Taiwan Co. Ltd.) were divided into three groups (i.e., Groups 1-3) in this study. In Group I, 6 rats, as negative control, were given no treatment; 6 rats, as positive control, were given 3.35 mg/kg/day Sennosides (Through®, Chung Mei Pharmaceutical Co., Ltd; Active ingredient: Sennosides 20 mg, as sennoside A+B 12 mg, Lot. 012F 006); 6 rats were treated STD05 (8 mg/kg/day); 6 rats were treated with an extract fraction containing aloe-emodin, rhein, and emodin (“ARE”, 8 mg/kg/day); 6 rats were treated with Aloe-emodin (4 mg/kg/day); and 6 rats were treated with Rhein (4 mg/kg/day). In Group II, 6 rats, as negative control, were given no treatment; 6 rats, as positive control, were given 3.35 mg/kg/day Sennosides; 6 rats were treated STD05 (24 mg/kg/day); 6 rats were treated with an extract fraction containing ARE (24 mg/kg/day); 6 rats were treated with Chrysophanol (4 mg/kg/day); and 6 rats were treated with Emodin (4 mg/kg/day). In Group III, 6 rats, as negative control, were given no treatment; 6 rats were treated with Physcoin (4 mg/kg/day); and 6 rats were treated with a mixture of chrysophanol and physcion (8 mg/kg/day, “CP”). The experiments were carried out under controlled temperature, humidity, and lighting. Each rat was fed standard rat food and water ad libitum in housing that provided a 12-hour light/dark cycle. For statistical comparison, all of the rats were divided into six sets according to the body weights. The first part of the experiment studied the effect of the test substances on feces production. During the 10-day period, the body weights of the rats were weighed each day and recorded. The rat's feces was also studied three times in the manner described above during the 10-day period for any unusual observations. During the 10-day period, any rat that appeared dying was euthanized, dissected, and examined for any illness or injury. Any complications or illness were analyzed by H&E stains to determine the cause of death and to allow for dosage reconsiderations for future experiments. Summarized in Table 4 below are the effects of the compounds, mixtures, or extracts on the rat body weights. During the period, feces produced by the rats were studied days 1, 5, and 10 in the same manner described above. […] In the 10-day period, the rats administered with STD05 produced more feces (wet weight) that the rats in the control group by about 32%. In addition, the pellet counts for the rats administered with STD05 were greater than those for the control rats by about 20%. Furthermore, STD05 increased the water content in feces by about 18%. The same experiments were conducted on rats administered with physcion, aloe-emodin, chrysophanol, rhein, emodin, CP, and ARE.
# [2] = Enteric absorption rate (statement, no method given); settings: general statement
# [3] = Side effects compared with Rheum palmatum Linne herb extracts (statement, no method given); settings: general statement
smiles,measurement,setting,value
"COc1cc(O)c2c(c1)C(=O)c1cc(C)cc(O)c1C2=O [Physcion, physcion]","Body weight Difference, Mean","[1]; group mean, Day 10 minus Day 1",30 g
same,"Body weight End Day 10, Mean",[1]; group mean,425 g
same,Body weight Difference,"[1]; individual rats, Day 10 minus Day 1",25 and 30 (3×) and 45 and 20
same,Body weight End Day 10,"[1]; individual rats, in g (unit assumed)",410 and 430 and 450 and 385 and 415 and 460
same,increase of the feces amount (wet weight),healthy male S.D. rats; Day 1,93%
same,increase of the feces amount (wet weight),healthy male S.D. rats; Day 5,57%
same,increase of the feces amount (wet weight),healthy male S.D. rats; Day 10,32%
same,Pellet count,healthy male S.D. rats; Day 1,134
same,Water content,healthy male S.D. rats; Day 1,55.73%
same,Wet Weight,healthy male S.D. rats; Day 1,35.38 g
same,Pellet count,healthy male S.D. rats; Day 5,128
same,Water content,healthy male S.D. rats; Day 5,53.80%
same,Wet Weight,healthy male S.D. rats; Day 5,35.17 g
same,Pellet count,healthy male S.D. rats; Day 10,121
same,Water content,healthy male S.D. rats; Day 10,47.66%
same,Wet Weight,healthy male S.D. rats; Day 10,29.43 g
same,"increase of the feces amount (wet weight), average","healthy male S.D. rats; average of Days 1, 5 and 10",61%
same,enteric absorption rate,[2],very low
same,"side effects often seen in herb extracts (cramping, bloating, gas, and diarrhea)",[3],do not have the side effects
